Measured values taken from ChEMBL document CHEMBL1134036, “Discovery and SAR of diarylsulfide cyclopropylamide LFA-1/ICAM-1 interaction antagonists” (Bioorg Med Chem Lett, 2001).
Each block holds one molecule with its values, some of them ahead of it.

Experiments:
[1] = target: T1, Intercellular adhesion molecule (ICAM-1), Integrin alpha-L/beta-2 (Homo sapiens, UniProt P05107+P20701); experiment: Ability to block the adherence of leukocyte function-associated antigen-1 (LFA-1) expressing JY-8 cells and intercellular adhesion molecule (ICAM-1) by 50% in absence of serum; assay type: cell-based
[2] = target: T2, Intercellular adhesion molecule (ICAM-1), Integrin alpha-L/beta-2 (Homo sapiens) (UniProt P20701+P05362+P05107); conditions: JY-8
Description: 70% inhibition of JY-8 cell adhesion to ICAM-1 via leukocyte function-associated antigen-1 (LFA-1) without serum

[3] = target: T2, Intercellular adhesion molecule (ICAM-1), Integrin alpha-L/beta-2 (Homo sapiens); conditions: JY-8; remark: listed apart in the source
Description: 80% inhibition of JY-8 cell adhesion to ICAM-1 via leukocyte function-associated antigen-1 (LFA-1) withouot serum

[4] = target: T1, Intercellular adhesion molecule (ICAM-1), Integrin alpha-L/beta-2; experiment: 50% inhibition of JY-8 cell adhesion to ICAM-1 via leukocyte function-associated antigen-1 (LFA-1) with 50% FBS; assay type: cell-based
[5] = target: T2, Intercellular adhesion molecule (ICAM-1), Integrin alpha-L/beta-2 (Homo sapiens); conditions: JY-8; remark: listed apart in the source
Description: 70% inhibition of JY-8 cell adhesion to ICAM-1 via leukocyte function-associated antigen-1 (LFA-1) with 50% FBS

[6] = target: T2, Intercellular adhesion molecule (ICAM-1), Integrin alpha-L/beta-2 (Homo sapiens); conditions: 50% FBS
Description: 80% inhibition of JY-8 cell adhesion to ICAM-1 via leukocyte function-associated antigen-1 (LFA-1) with 50% FBS

[7] = Oral bioavailability of compound at 5 mg/kg after po administration was determined in rat; assay type: ADME, organism-based; conditions: in vivo
[8] = Cmax of compound at 5 mg/kg after po administration was determined in rat; assay type: ADME, organism-based; parameters: dose 5 mg/kg, route oral; conditions: in vivo
[9] = Half life of compound at 5 mg/kg after po administration was determined in rat; assay type: ADME, organism-based; parameters: dose 5 mg/kg, route oral; conditions: in vivo

T1 sequence (P20701 whole entry): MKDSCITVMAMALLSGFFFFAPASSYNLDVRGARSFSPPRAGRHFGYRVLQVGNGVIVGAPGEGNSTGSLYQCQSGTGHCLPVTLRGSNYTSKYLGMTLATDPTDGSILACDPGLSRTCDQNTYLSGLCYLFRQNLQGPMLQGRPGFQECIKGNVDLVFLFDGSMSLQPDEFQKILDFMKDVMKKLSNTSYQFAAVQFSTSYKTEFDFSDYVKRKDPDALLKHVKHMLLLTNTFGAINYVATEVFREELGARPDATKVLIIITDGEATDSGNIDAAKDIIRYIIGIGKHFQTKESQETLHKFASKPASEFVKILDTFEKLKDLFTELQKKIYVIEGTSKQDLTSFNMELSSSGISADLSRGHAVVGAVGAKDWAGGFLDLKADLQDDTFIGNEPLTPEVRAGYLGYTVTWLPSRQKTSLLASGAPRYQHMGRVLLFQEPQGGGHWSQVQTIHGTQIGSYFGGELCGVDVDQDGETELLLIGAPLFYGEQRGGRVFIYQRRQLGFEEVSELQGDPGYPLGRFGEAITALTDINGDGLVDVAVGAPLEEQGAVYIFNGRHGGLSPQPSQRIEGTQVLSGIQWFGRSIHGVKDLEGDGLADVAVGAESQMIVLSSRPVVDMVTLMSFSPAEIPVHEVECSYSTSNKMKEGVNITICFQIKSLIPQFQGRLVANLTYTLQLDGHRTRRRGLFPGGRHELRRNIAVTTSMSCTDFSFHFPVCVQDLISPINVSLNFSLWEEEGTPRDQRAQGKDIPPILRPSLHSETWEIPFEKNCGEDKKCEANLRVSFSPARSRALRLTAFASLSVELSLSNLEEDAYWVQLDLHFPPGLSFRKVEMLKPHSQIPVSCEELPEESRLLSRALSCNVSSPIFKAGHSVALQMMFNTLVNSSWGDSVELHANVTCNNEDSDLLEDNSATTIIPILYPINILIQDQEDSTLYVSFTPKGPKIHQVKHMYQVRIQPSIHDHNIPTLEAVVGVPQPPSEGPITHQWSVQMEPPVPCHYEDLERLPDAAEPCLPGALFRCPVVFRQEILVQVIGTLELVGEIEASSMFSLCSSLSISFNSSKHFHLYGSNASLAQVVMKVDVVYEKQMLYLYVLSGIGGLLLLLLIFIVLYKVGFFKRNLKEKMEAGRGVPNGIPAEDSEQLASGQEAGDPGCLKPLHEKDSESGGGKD
T1 sequence (P05362 whole entry, further chain): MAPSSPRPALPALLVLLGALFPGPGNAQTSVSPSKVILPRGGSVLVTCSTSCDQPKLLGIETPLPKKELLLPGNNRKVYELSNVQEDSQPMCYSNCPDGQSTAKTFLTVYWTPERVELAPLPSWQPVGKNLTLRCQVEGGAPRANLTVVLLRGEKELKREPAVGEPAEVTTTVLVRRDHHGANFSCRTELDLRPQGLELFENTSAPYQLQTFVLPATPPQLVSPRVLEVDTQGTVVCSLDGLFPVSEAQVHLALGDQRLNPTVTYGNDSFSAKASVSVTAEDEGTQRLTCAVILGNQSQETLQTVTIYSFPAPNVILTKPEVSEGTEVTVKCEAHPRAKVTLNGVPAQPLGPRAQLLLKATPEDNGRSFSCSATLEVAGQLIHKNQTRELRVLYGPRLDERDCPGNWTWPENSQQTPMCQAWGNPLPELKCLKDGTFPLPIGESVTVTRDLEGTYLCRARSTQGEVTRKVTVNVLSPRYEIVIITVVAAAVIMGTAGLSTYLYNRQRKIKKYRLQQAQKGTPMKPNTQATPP
T1 sequence (P05107 whole entry): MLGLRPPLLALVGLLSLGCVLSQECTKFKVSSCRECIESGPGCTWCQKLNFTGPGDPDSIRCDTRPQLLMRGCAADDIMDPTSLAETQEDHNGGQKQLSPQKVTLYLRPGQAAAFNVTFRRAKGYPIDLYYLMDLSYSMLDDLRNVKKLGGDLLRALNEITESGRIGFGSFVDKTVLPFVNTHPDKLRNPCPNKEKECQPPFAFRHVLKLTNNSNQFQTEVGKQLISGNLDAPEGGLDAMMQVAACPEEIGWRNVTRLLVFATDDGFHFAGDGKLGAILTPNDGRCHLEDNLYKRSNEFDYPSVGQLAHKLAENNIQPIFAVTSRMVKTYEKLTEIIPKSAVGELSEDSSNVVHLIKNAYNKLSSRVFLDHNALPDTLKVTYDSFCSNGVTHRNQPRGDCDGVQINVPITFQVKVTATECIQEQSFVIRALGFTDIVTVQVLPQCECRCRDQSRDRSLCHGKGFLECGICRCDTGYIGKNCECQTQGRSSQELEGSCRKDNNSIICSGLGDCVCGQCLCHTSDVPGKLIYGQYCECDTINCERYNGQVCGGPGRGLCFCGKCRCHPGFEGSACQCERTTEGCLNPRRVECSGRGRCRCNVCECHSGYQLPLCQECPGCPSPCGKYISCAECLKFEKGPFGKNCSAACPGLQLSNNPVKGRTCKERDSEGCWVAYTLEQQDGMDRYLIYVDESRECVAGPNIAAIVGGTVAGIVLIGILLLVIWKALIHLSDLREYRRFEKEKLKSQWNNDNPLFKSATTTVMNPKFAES

- IC50 [1]: 620 nM
SMILES: O=C(O)C1CCN(c2ccccc2Sc2ccc(C3CC3C(=O)NCCCN3CCCC3=O)cc2C(F)(F)F)CC1 (stereo unspecified)

- IC50 [1]: 40 nM
SMILES: O=C(NCCCN1CCCC1=O)C1CC1c1ccc(Sc2ccccc2N2CCCCC2)c(C(F)(F)F)c1 (stereo unspecified)

SMILES: O=C(O)C1CCCN(c2ccccc2Sc2ccc(C3CC3C(=O)NCCCN3CCCC3=O)cc2C(F)(F)F)C1 (stereo unspecified)
- IC50 [1]: 50 nM

- IC50 [1]: 115 nM
SMILES: CCOC(=O)C1CCN(c2ccccc2Sc2ccc(C3CC3C(=O)NCCCN3CCCC3=O)cc2C(F)(F)F)CC1 (stereo unspecified)

SMILES: CN1CCN(c2ccccc2Sc2ccc(C3CC3C(=O)NCCCN3CCCC3=O)cc2C(F)(F)F)CC1 (stereo unspecified)
- IC50 [1]: 200 nM

- IC50 [1]: 100 nM
SMILES: CCOC(=O)C1CCCN(c2ccccc2Sc2ccc(C3CC3C(=O)NCCCN3CCCC3=O)cc2C(F)(F)F)C1 (stereo unspecified)

SMILES: O=C(NCCCN1CCCC1=O)C1CC1c1ccc(Sc2ccccc2N2CCOCC2)c(C(F)(F)F)c1 (stereo unspecified)
- IC50 [1]: 15 nM

SMILES: O=C(NCCCN1CCCC1=O)C1CC1c1ccc(Sc2ccccc2N2CCCC2)c(C(F)(F)F)c1 (stereo unspecified)
- IC50 [1]: 32 nM

- IC50 [1]: 34 nM
SMILES: CC(C)c1ccccc1Sc1ccc(C2CC2C(=O)NCCC(=O)O)c(Cl)c1Cl (single isomer, unassigned)

- IC50 [1]: 33 nM
SMILES: CC(C)c1ccccc1Sc1ccc(C2CC2C(=O)N2CCCCC2C(=O)O)c(Cl)c1Cl (single isomer, unassigned)

- IC50 [1]: 21 nM
SMILES: CC(C)c1ccccc1Sc1ccc(C2CC2C(=O)N2CCC(C(=O)O)CC2)c(Cl)c1Cl (single isomer, unassigned)

- IC50 [1]: 33 nM
SMILES: CC(C)c1ccccc1Sc1ccc(C2CC2C(=O)NCC(=O)O)c(Cl)c1Cl (single isomer, unassigned)

SMILES: CC(C)c1ccccc1Sc1ccc(C2CC2C(=O)N2CCCC(C(=O)O)C2)c(Cl)c1Cl (stereo in doubt)
- IC50 [1]: 17 nM

SMILES: CC(C)c1ccccc1Sc1ccc(C2CC2C(=O)NCCCC(=O)O)c(Cl)c1Cl (stereo in doubt)
- IC50 [1]: 26 nM

SMILES: CC(C)c1ccccc1Sc1ccc(C2CC2C(=O)NCCCN2CCCC2=O)c(Cl)c1Cl (stereo in doubt)
- IC50 [1]: 6 nM

SMILES: CC(C)c1ccccc1Sc1ccc(C2CC2C(=O)NCCCN2CCCC2=O)c(Cl)c1Cl (stereo in doubt; 12a) [listing 1 of 2 here]
- IC50 [1]: 7 nM

SMILES: CC(C)c1ccccc1Sc1ccc(C2CC2C(=O)NCCCN2CCCC2=O)c(Cl)c1Cl (stereo in doubt; 12a) [listing 2 of 2 here]
- IC70 [2]: 40 nM
- IC80 [3]: 63 nM

- IC50 [1]: 12 nM
SMILES: CC(C)c1ccccc1Sc1ccc(C2CC2C(=O)NCC(=O)O)c(Cl)c1Cl (stereo in doubt; 13a) [listing 1 of 2 here]

- IC70 [2]: 50 nM
- IC80 [3]: 95 nM
SMILES: CC(C)c1ccccc1Sc1ccc(C2CC2C(=O)NCC(=O)O)c(Cl)c1Cl (stereo in doubt; 13a) [listing 2 of 2 here]

- IC50 [1]: 8 nM
SMILES: CC(C)c1ccccc1Sc1ccc(C2CC2C(=O)NCCC(=O)O)c(Cl)c1Cl (stereo in doubt; 14a) [listing 1 of 2 here]

- IC70 [2]: 26 nM
- IC80 [3]: 54 nM
SMILES: CC(C)c1ccccc1Sc1ccc(C2CC2C(=O)NCCC(=O)O)c(Cl)c1Cl (stereo in doubt; 14a) [listing 2 of 2 here]

SMILES: CC(C)c1ccccc1Sc1ccc(C2CC2C(=O)NCCCC(=O)O)c(Cl)c1Cl (stereo in doubt; 15a) [listing 1 of 2 here]
- IC50 [1]: 7 nM

SMILES: CC(C)c1ccccc1Sc1ccc(C2CC2C(=O)NCCCC(=O)O)c(Cl)c1Cl (stereo in doubt; 15a) [listing 2 of 2 here]
- IC70 [2]: 16 nM
- IC80 [3]: 9 nM

- IC50 [1]: 13 nM
- IC50 [4]: 1480 nM
SMILES: CC(C)c1ccccc1Sc1ccc(C2CC2C(=O)N2CCCCC2C(=O)O)c(Cl)c1Cl (stereo in doubt; 16a) [listing 1 of 2 here]

- IC70 [2]: 55 nM
- IC70 [5]: 3520 nM
- IC80 [3]: 110 nM
- IC80 [6]: 8820 nM
SMILES: CC(C)c1ccccc1Sc1ccc(C2CC2C(=O)N2CCCCC2C(=O)O)c(Cl)c1Cl (stereo in doubt; 16a) [listing 2 of 2 here]

SMILES: CC(C)c1ccccc1Sc1ccc(C2CC2C(=O)N2CCCC(C(=O)O)C2)c(Cl)c1Cl (stereo in doubt; 17a) [listing 1 of 2 here]
- IC50 [1]: 6 nM

SMILES: CC(C)c1ccccc1Sc1ccc(C2CC2C(=O)N2CCCC(C(=O)O)C2)c(Cl)c1Cl (stereo in doubt; 17a) [listing 2 of 2 here]
- IC70 [2]: 13 nM
- IC80 [3]: 25 nM

- IC50 [1]: 9 nM
SMILES: CC(C)c1ccccc1Sc1ccc(C2CC2C(=O)N2CCC(C(=O)O)CC2)c(Cl)c1Cl (stereo in doubt; 18a) [listing 1 of 2 here]

- IC70 [2]: 24 nM
- IC80 [3]: 54 nM
SMILES: CC(C)c1ccccc1Sc1ccc(C2CC2C(=O)N2CCC(C(=O)O)CC2)c(Cl)c1Cl (stereo in doubt; 18a) [listing 2 of 2 here]

SMILES: O=C(O)C1CCCN(c2ccccc2Sc2ccc(C3CC3C(=O)NCCCN3CCCC3=O)c(Cl)c2Cl)C1 (stereo in doubt; 27) [listing 1 of 2 here]
- IC50 [1]: 15 nM
- IC50 [4]: 33 nM

SMILES: O=C(O)C1CCCN(c2ccccc2Sc2ccc(C3CC3C(=O)NCCCN3CCCC3=O)c(Cl)c2Cl)C1 (stereo in doubt; 27) [listing 2 of 2 here]
- IC70 [2]: 26 nM
- IC70 [5]: 120 nM
- IC80 [3]: 40 nM
- IC80 [6]: 210 nM

SMILES: O=C(O)C1CCCN(c2ccccc2Sc2ccc(C3CC3C(=O)NCCCN3CCCC3=O)c(Cl)c2Cl)C1 (stereo in doubt; 28) [listing 1 of 2 here]
- bioavailability [7]: 27%
- Cmax [8]: 350 ng/mL
- half-life [9]: 1.2 h
- IC50 [1]: 10 nM
- IC50 [4]: 29 nM

SMILES: O=C(O)C1CCCN(c2ccccc2Sc2ccc(C3CC3C(=O)NCCCN3CCCC3=O)c(Cl)c2Cl)C1 (stereo in doubt; 28) [listing 2 of 2 here]
- IC70 [2]: 21 nM
- IC70 [5]: 116 nM
- IC80 [3]: 26 nM
- IC80 [6]: 199 nM

SMILES: O=C(O)C1CCCN(c2ccccc2Sc2ccc(C3CC3C(=O)NCCCN3CCCC3=O)c(Cl)c2Cl)C1 (stereo in doubt; 29) [listing 1 of 2 here]
- IC50 [1]: 31 nM
- IC50 [4]: 640 nM

SMILES: O=C(O)C1CCCN(c2ccccc2Sc2ccc(C3CC3C(=O)NCCCN3CCCC3=O)c(Cl)c2Cl)C1 (stereo in doubt; 29) [listing 2 of 2 here]
- IC70 [2]: 97 nM
- IC70 [5]: 2100 nM
- IC80 [3]: 142 nM
- IC80 [6]: 3200 nM

SMILES: O=C(O)C1CCCN(c2ccccc2Sc2ccc(C3CC3C(=O)NCCCN3CCCC3=O)c(Cl)c2Cl)C1 (stereo in doubt; 30) [listing 1 of 2 here]
- IC50 [1]: 5 nM
- IC50 [4]: 27 nM

SMILES: O=C(O)C1CCCN(c2ccccc2Sc2ccc(C3CC3C(=O)NCCCN3CCCC3=O)c(Cl)c2Cl)C1 (stereo in doubt; 30) [listing 2 of 2 here]
- IC70 [2]: 10 nM
- IC70 [5]: 89 nM
- IC80 [3]: 19 nM
- IC80 [6]: 133 nM
